# Experimental data as given in patent US12171768B2, “IRAK4 degraders and uses thereof” (priority 2021, dated 2024).
# Experiment: Diastereomer interconversion
# Type: physicochemical
# Details: in vitro and in vivo
row,Structure (SMILES),Diastereomer interconversion
1,"Cn1c(=O)n([C@H]2CCC(=O)NC2=O)c2cccc(C#CCOC3CCN(C[C@H]4CC[C@H](n5cc(NC(=O)c6cnn7ccc(N8C[C@H]9C[C@@H]8CO9)nc67)c(C(F)F)n5)CC4)CC3)c21 [Compound B, 5-((1R,4R)-2-oxa-5-azabicyclo[2.2.1]heptan-5-yl)-N-(3-(difluoromethyl)-1-((1r,4R)-4-((4-((3-(1-((S)-2,6-dioxopiperidin-3-yl)-3-methyl-2-oxo-2,3-dihydro-1H-benzo[d]imidazol-4-yl)prop-2-yn-1-yl)oxy)piperidin-1-yl)methyl)cyclohexyl)-1H-pyrazol-4-yl)pyrazolo[1,5-a]pyrimidine-3-carboxamide]",interconvert rapidly
2,"Cn1c(=O)n([C@@H]2CCC(=O)NC2=O)c2cccc(C#CCOC3CCN(C[C@H]4CC[C@H](n5cc(NC(=O)c6cnn7ccc(N8C[C@H]9C[C@@H]8CO9)nc67)c(C(F)F)n5)CC4)CC3)c21 [Compound C, 5-((1R,4R)-2-oxa-5-azabicyclo[2.2.1]heptan-5-yl)-N-(3-(difluoromethyl)-1-((1r,4R)-4-((4-((3-(1-((R)-2,6-dioxopiperidin-3-yl)-3-methyl-2-oxo-2,3-dihydro-1H-benzo[d]imidazol-4-yl)prop-2-yn-1-yl)oxy)piperidin-1-yl)methyl)cyclohexyl)-1H-pyrazol-4-yl)pyrazolo[1,5-a]pyrimidine-3-carboxamide]",interconvert rapidly
